Values of other authors, collected in patent US7910678B2, “Copolymers having 1-methyl-2-methoxyethyl moieties” (Abbott Laboratories, priority 2006, dated 2011).
Where two headings read alike, the source gives them in different places.

Tested on: mouse

Row | Structure (SMILES) | Oral-mouse LD50 (oral) [mg/kg] | Oral-mouse LD50 (in vivo, po) [mg/kg]
1 | COCC(C)O (stereo not shown) [1-methoxy-2-propanol] | 11700 | –
2 | CCOCCO [2-ethoxyethanol] | 2451 | –
3 | COCCO [2-methoxyethanol] | 2560 | –
4 | CCO [ethanol] | – | 3450
